Measured values taken from US20070028400A1, “Skin and/or hair treatment agent containing tetrasubstituted cyclohexene compounds” (priority 2003, published 2007).

Test system: primary normal human melanocytes
Test: Melanogenesis assay (C14-tyrosine incorporation), 3 days incubation
Format: cell-based
Details: measured as C14-tyrosine incorporation, n=3
Procedure: By way of example, the test for the compound acetyl-retinyliminoethanol is given.
A melanogenesis assay was carried out after incubation for 3 days of primary normal human melanocytes with test substance compared to control. The numbers given in the table indicate the melanogenesis rates based on the untreated control (=100%) (measured as C14-tyrosine incorporation).

SMILES: CC(=O)OCC/N=C/C=C(C)/C=C/C=C(C)/C=C/C1=C(C)CCCC1(C)C [acetyl-retinyliminoethanol, 2-{[(1E,2E,4E,6E,8E)-3,7-dimethyl-9-(2,6,6-trimethylcyclohex-1-en-1-yl)nona-2,4,6,8-tetraen-1-ylidene]amino}ethyl acetate]
- melanogenesis rate based on the untreated control (=100%), Average (0.1 μg/ml test substance): 117%
- melanogenesis rate based on the untreated control (=100%), Average (1 μg/ml test substance): 253%
